Experimental data reported in ChEMBL document CHEMBL1949531, “Synthesis and antiviral activities of novel gossypol derivatives” (Bioorg Med Chem Lett, 2012).
The source made the active and inactive calls. The rule behind the calls is not given here.

What was measured:
[1] = test system: Human immunodeficiency virus 1; test: Antiviral activity against HIV1 3B infected human TZM-bl cells assessed as inhibition of viral replication by luciferase reporter assay; format: functional, organism-based
[2] = Cytotoxicity in human TZM-bl cells by MTT assay; format: cell-based
[3] = Selectivity index, ratio of CC50 for human TZM-bl cells to IC50 for HIV1 3B; format: functional
Albumin = Albumin (Homo sapiens, UniProt P02768); test: Binding affinity to human serum albumin by fluorescence quenching assay; format: ADME; conditions: isolated protein
Albumin, sequence (P02768 whole entry): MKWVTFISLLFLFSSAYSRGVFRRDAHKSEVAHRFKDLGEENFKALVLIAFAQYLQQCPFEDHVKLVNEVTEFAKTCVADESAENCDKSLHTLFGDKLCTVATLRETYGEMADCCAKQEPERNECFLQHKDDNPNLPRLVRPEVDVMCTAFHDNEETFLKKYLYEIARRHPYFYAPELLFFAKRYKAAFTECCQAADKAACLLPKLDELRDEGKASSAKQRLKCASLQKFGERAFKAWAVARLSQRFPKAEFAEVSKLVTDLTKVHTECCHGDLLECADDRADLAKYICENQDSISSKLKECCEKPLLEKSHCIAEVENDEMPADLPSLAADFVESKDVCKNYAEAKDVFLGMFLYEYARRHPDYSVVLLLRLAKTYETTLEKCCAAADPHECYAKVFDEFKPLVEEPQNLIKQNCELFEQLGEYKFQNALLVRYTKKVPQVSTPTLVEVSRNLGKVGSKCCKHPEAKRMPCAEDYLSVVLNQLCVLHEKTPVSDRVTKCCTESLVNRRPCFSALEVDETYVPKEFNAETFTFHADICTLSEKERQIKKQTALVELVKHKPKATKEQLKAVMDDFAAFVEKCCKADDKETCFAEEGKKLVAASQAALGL

[4] = test system: Human immunodeficiency virus 1; test: Antiviral activity against HIV1 3B infected human TZM-bl cells assessed as inhibition of viral replication at 10 uM treated immediately after infection by luciferase reporter assay; format: functional, organism-based
[5] = test system: Human immunodeficiency virus 1; test: Antiviral activity against HIV1 3B infected human TZM-bl cells assessed as inhibition of viral replication at 10 uM treated 2 hrs after viral infection by luciferase reporter assay; format: functional, organism-based
Influenza A virus = test: Antiviral activity against Influenza A virus (A/Vietnam/1194/2004(H5N1)) infected in MDCK cells assessed as inhibition of viral replication by plaque reduction assay; format: functional, organism-based
[6] = Cytotoxicity against MDCK cells by MTT assay; format: cell-based, Canis lupus familiaris; conditions: dog
[7] = Selectivity index, ratio of CC50 for MDCK cells to IC50 for Influenza A virus (A/Vietnam/1194/2004(H5N1)); format: functional
[8] = target: Neuraminidase (Influenza A virus) (UniProt B4URF0); test: Inhibition of Influenza A virus neuraminidase up to 10 uM
Neuraminidase (Influenza A virus), sequence (B4URF0 as listed by the source): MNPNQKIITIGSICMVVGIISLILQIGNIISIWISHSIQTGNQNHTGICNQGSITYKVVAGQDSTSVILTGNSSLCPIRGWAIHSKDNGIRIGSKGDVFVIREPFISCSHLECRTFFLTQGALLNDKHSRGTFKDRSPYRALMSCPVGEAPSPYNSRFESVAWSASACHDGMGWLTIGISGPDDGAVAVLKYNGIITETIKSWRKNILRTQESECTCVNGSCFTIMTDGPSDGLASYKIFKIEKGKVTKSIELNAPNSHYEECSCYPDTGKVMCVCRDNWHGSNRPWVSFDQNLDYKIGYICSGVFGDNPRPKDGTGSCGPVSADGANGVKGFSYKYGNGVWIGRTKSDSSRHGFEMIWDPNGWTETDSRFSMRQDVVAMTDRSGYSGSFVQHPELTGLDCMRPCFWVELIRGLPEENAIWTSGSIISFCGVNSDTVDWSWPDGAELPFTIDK

[9] = target: Human immunodeficiency virus type 1 reverse transcriptase (Human immunodeficiency virus 1) (UniProt Q72547); test: Inhibition of HIV1 reverse transcriptase activity at 20 ug/ml
[10] = target: Human immunodeficiency virus type 1 reverse transcriptase (Human immunodeficiency virus 1) (UniProt Q72547); test: Inhibition of HIV1 reverse transcriptase activity at 4 ug/ml
[11] = target: Human immunodeficiency virus type 1 reverse transcriptase (Human immunodeficiency virus 1) (UniProt Q72547); test: Inhibition of HIV1 reverse transcriptase activity at 0.8 ug/ml
[12] = target: Human immunodeficiency virus type 1 reverse transcriptase (Human immunodeficiency virus 1) (UniProt Q72547); test: Inhibition of HIV1 reverse transcriptase activity
[13] = test system: Human immunodeficiency virus 1; test: Antiviral activity against HIV1 3B infected human TZM-bl cells assessed as inhibition of viral replication at 10 uM treated 8 hrs after viral infection by luciferase reporter assay; format: functional, organism-based
[14] = Human immunodeficiency virus 1, 3B, TZM-bl, read-out: IC50

| Compound | IC50 [1, 14] [µM] | CC50 [2] [µM] | Ratio CC50/IC50 [3] | Ka (Albumin) | inhibition [4] | inhibition [5] | IC50 (Influenza A virus) [µM] | CC50 [6] [µM] | Ratio CC50/IC50 [7] | inhibition [8] | IC50 ([1]; tzm-bl) | inhibition [9] [%] | inhibition [10] [%] | inhibition [11] | inhibition [12] | inhibition [13] |
| --- | --- | --- | --- | --- | --- | --- | --- | --- | --- | --- | --- | --- | --- | --- | --- | --- |
| Cc1cc2c(c(O)c1-c1c(C)cc3c(c1O)/C(=C/N[C@@H](Cc1c[nH]c4ccccc14)C(=O)[O-])C(=O)C(O)=C3C(C)C)/C(=C/N[C@@H](Cc1c[nH]c3ccccc13)C(=O)[O-])C(=O)C(O)=C2C(C)C.[Na+].[Na+] | 0.99 | 48 | 48.43 | 9.2747 ×10⁴ L/mol | Active | inactive | 0.28 | > 35.7 | >127.46 | inactive |  |  |  |  |  |  |
| Cc1cc2c(C(C)C)c(O)c(O)c(C=O)c2c(O)c1-c1c(C)cc2c(C(C)C)c(O)c(O)c(C=O)c2c1O [GOSSYPOL] |  | 9.76 |  | 2.3906 ×10⁵ L/mol |  |  |  | 3.53 |  |  | Not Active | 73.2 | 76.3 | inactive | Dose-dependent effect |  |
| CC[C@H](C)[C@H](N/C=C1\C(=O)C(O)=C(C(C)C)c2cc(C)c(-c3c(C)cc4c(c3O)/C(=C/N[C@H](C(=O)[O-])[C@@H](C)CC)C(=O)C(O)=C4C(C)C)c(O)c21)C(=O)[O-].[Na+].[Na+] | 1.12 | 64.5 | 57.57 | 5.3223 ×10⁴ L/mol | Active | inactive | 0.34 | > 42.3 | >124.41 | inactive |  |  |  |  |  |  |
| Cc1cn([C@H]2C[C@H](N=[N+]=[N-])[C@@H](CO)O2)c(=O)[nH]c1=O [ZIDOVUDINE] | 0.0028 |  |  |  |  |  |  |  |  |  |  |  |  |  |  | Active |
